In patent US20260209247A1, “Substituted Tricyclic Compounds” (Lupin Limited, priority 2019, published 2026):

Columns and labels:
[1] = target: T1, protein-protein interaction between hSOS1 and hKRASG12C (Homo sapiens, UniProt Q07889); assay: KRAS-SOS1 interaction assay (HTRF); assay type: binding; settings: GST-hSOS1 564-1049aa, HIS-hKRASG12C, read-out: KRAS-SOS1 Interaction inhibition IC50
T1 construct: GST-hSOS1, 564-1049aa expressed and purified in-house
T1 sequence (Q07889 564-1049): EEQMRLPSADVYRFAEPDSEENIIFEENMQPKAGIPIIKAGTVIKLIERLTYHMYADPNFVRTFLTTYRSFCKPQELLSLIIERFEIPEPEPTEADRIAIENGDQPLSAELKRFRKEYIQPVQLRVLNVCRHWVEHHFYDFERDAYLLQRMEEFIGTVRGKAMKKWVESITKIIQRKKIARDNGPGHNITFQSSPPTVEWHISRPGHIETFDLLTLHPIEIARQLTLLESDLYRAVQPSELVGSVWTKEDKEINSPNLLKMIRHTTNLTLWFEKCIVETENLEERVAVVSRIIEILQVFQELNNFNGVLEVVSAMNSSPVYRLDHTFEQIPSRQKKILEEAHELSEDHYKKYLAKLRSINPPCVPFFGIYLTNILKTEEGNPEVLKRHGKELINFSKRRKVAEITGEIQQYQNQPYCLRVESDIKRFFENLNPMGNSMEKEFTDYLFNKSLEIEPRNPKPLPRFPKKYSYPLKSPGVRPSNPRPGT
Outline: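 GST-hSOS1 (564-1049aa) at 10-50 nM working solution pre-incubated with compounds 10 min at 20° C in HEPES pH 7.4 buffer with EDTA, DTT, BSA and Igepal. HIS-hKRASG12C (100-300 nM working solution) added for 30-60 min, then anti-GST-d2/anti-HIS-Tb detection; percent inhibition from the 665/620 nm ratio.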

[2] = target: T2, nucleotide exchange on hKRASG12C mediated by hSOS1 (Homo sapiens, UniProt Q07889); assay: Guanine nucleotide exchange assay (GNEA, HTRF); assay type: biochemical; settings: HIS-hSOS1 564-1049aa mediated GTP loading onto GST-hKRASG12C 1-169aa, read-out: Guanine nucleotide exchange inhibition IC50
T2 construct: HIS-hSOS1, 564-1049aa mediated GTP loading onto GST-hKRASG12C; His (N); made in house
T2 sequence (Q07889 564-1049): T1 sequence (Q07889 564-1049)
Outline: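 Compounds were pre-incubated 10 min at 20 °C with HIS-hSOS1 (564-1049aa) and EDA-GTP-DY-647P1 (working solution 10-50 nM and 200 nM) in pH 7.4 HEPES with NaCl, MgCl2, DTT, BSA and Igepal. GST-hKRASG12C (1-169aa, 25-125 nM working solution) plus anti-GST-Tb was added for 30-60 min at 20 °C. Percent inhibition came from the HTRF 665/620 nm ratio.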

[3] = system: pERK after EGF stimulation in DLD1 cells; assay: ERK phosphorylation assay (alphascreen pERK); assay type: cell-based; settings: Homo sapiens, DLD-1, 2 h compound, 200 ng/ml hEGF for 5 minutes, read-out: ERK phosphorylation inhibition IC50
Outline: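 DLD1 cells pretreated with test compounds for 2 h, then stimulated with 200 ng/ml hEGF for 5 min. Lysates assayed by AlphaScreen SureFire for ERK1/2 p-T202/Y204, read after 2 h at 25–28 °C. % inhibition relative to the stimulated-minus-unstimulated vehicle window.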

[4] = system: MIA PaCa-2 human pancreatic cancer xenograft; assay: MIA PaCa-2 xenograft efficacy study; assay type: in vivo; settings: b.i.d., p.o., nude mice
Method: In vivo efficacy of compounds 68, 101b at a dose of 30 mg/kg, b.i.d., p.o. and compound 81 at a dose of 50 mg/kg, b.i.d., p.o., was evaluated in MIA PaCa-2 human pancreatic cancer xenograft model in nude mice.
MIA PaCa-2 tumor fragments were implanted subcutaneously in the right flank region of nude mice. Tumor-bearing mice were randomized once the tumors reached an average volume of ~141-142 mm^3 (tumor volume range 72-242 mm^3).
To assess the efficacy of compound 81, the tumor-bearing mice were randomized once the tumors reached an average volume of ~181-183 mm^3 (tumor volume range 73-251 mm^3). The mice were divided into the following groups (n=8/group): Vehicle control and compound 81 (50 mg/kg, b.i d., p.o.).

Row | SMILES | IC50 [1] | IC50 [2] | IC50 [3] | tumor growth inhibition ([4]; 30 mg/kg) | tumor growth inhibition ([4]; 50 mg/kg)
1 | COC1(C)C(=O)N(C)c2cc3c(N[C@H](C)c4cccc(C(F)(F)C(C)(C)O)c4F)nc(C)nc3cc21 (single isomer, unassigned) [Compound 101b] | 1 to 10 nM | 1 to 30 nM | 1 to 200 nM | 65.71% | –
2 | Cc1nc(N[C@H](C)c2cccc(C(F)(F)C(C)(C)O)c2F)c2cc3c(cc2n1)C(C)(C)C(=O)N3C [Compound 68, (R)-4-((1-(3-(1,1-Difluoro-2-hydroxy-2-methylpropyl)-2-fluorophenyl)ethyl)amino)-2,6,8,8-tetramethyl-6,8-dihydro-7H-pyrrolo[2,3-g]quinazolin-7-one] | 1 to 10 nM | 1 to 30 nM | 1 to 200 nM | 63.82% | –
3 | Cc1nc(N[C@H](C)c2cccc(C(F)(F)C(C)(C)O)c2F)c2cc3c(cc2n1)N(C)C(=O)C3(C)C [Compound 81, (R)-4-((1-(3-(1,1-difluoro-2-hydroxy-2-methylpropyl)-2-fluorophenyl)ethyl)amino)-2,6,6,8-tetramethyl-6,8-dihydro-7H-pyrrolo[3,2-g]quinazolin-7-one] | 1 to 10 nM | 1 to 30 nM | 1 to 200 nM | – | 67.68%
